Experimental findings from ChEMBL document CHEMBL4609989, “Synthesis and antileishmanial activity of fluorinated rhodacyanine analogues: The 'fluorine-walk' analysis” (Bioorg Med Chem, 2020) are described below.

The structures appear in SMILES notation. Activity calls are given as the source filed them. No cut-off for these calls is given here.

The subject of data set [1] is J774.A1. As to the kind of experiment: Cytotoxicity against mouse J774A.1 cells assessed as reduction in cell viability at 4.0 uM incubated for 72 hrs by colorimetric assay relative to control. It is filed as cell-based. To be noted: j774.a1, 72 h.
In data set [2] the test system is J774.A1. Briefly: Cytotoxicity against mouse J774A.1 cells assessed as reduction in cell viability at 0.25 uM incubated for 72 hrs by colorimetric assay relative to control. To be noted: j774.a1, 72 h. It is filed as cell-based.
Data set [3] relates to Leishmania orientalis. Briefly: Antileishmanial activity against Leishmania orientalis MHOM/TH/2010/PCM2 promastigote incubated for 72 hrs by resazurin dye based colorimetric assay. Format: functional, organism-based. The note with it: Leishmania orientalis, MHOM/TH/2010/PCM2, 72 h. (In general: The colour change of resazurin is a common sign of viable cells or microbes.)

Data set [4] has as its system Leishmania orientalis. As to the kind of experiment: Antileishmanial activity against Leishmania orientalis MHOM/TH/2010/PCM2 promastigote at 0.25 uM incubated for 72 hrs by resazurin dye based colorimetric assay relative to control. Format: functional. To be noted: Leishmania orientalis, MHOM/TH/2010/PCM2, 72 h.
Data set [5] deals with Leishmania orientalis. As to the kind of experiment: Antileishmanial activity against Leishmania orientalis MHOM/TH/2010/PCM2 promastigote at 0.1 uM incubated for 72 hrs by resazurin dye based colorimetric assay relative to control. It is filed as functional. The note with it: for inhibition at 0.1 µM: Leishmania orientalis, MHOM/TH/2010/PCM2, 72 h.
Data set [6] deals with Leishmania martiniquensis. Briefly: Antileishmanial activity against Leishmania martiniquensis MHOM/MQ/92/MAR promastigote at 0.1 uM incubated for 72 hrs by resazurin dye based colorimetric assay relative to control. Format: functional. The note with it: for inhibition at 0.1 µM: Leishmania martiniquensis, MHOM/MQ/92/MAR, 72 h.
The subject of data set [7] is Leishmania orientalis. Briefly: Antileishmanial activity against Leishmania orientalis MHOM/TH/2010/PCM2 axenic amastigotes at 0.25 uM incubated for 72 hrs by resazurin dye based colorimetric assay relative to control. Format: functional. To be noted: Leishmania orientalis, MHOM/TH/2010/PCM2, 72 h.
Data set [8] deals with Leishmania martiniquensis. Briefly: Antileishmanial activity against Leishmania martiniquensis MHOM/MQ/92/MAR promastigote at 0.25 uM incubated for 72 hrs by resazurin dye based colorimetric assay relative to control. Format: functional. The note with it: for inhibition at 0.25 µM: Leishmania martiniquensis, MHOM/MQ/92/MAR, 72 h.
In data set [9] the test system is Leishmania martiniquensis. As to the kind of experiment: Antileishmanial activity against Leishmania martiniquensis MHOM/MQ/92/MAR promastigote incubated for 72 hrs by resazurin dye based colorimetric assay. It is filed as functional, organism-based. The note with it: Leishmania martiniquensis, MHOM/MQ/92/MAR, 72 h.
Data set [10] relates to Leishmania orientalis. Briefly: Antileishmanial activity against Leishmania orientalis MHOM/TH/2010/PCM2 axenic amastigotes incubated for 72 hrs by resazurin dye based colorimetric assay. Format: functional, organism-based. The note with it: Leishmania orientalis, MHOM/TH/2010/PCM2, 72 h.

For `CCn1c(=O)/c(=C/C=C2\Sc3ccccc3N2C)s/c1=C\c1sc2cccc(F)c2[n+]1C.[Cl-]`, the Activity in [1] is on record as 24.9%; in data set [2], “Non-Toxic”. Further, the midpoint of inhibition in data set [3], the IC50, lay at 65 nM. Moreover, the inhibition (in general, the drop in the measured response relative to a control, in per cent) at 0.25 µM was determined as 92.9% in data set [4], 58.2% in [7] and 64.1% in [8]. Further, the results for the inhibition at 0.1 µM in [5] and in data set [6] were 67.5% and 37.7%, respectively.
Regarding `C[C@@H]1[C@H](O)[C@@H](C)/C=C/C=C/C=C/C=C/C=C/C=C/C=C/[C@H](O[C@@H]2O[C@H](C)[C@@H](O)[C@H](N)[C@@H]2O)C[C@@H]2O[C@](O)(C[C@@H](O)C[C@@H](O)[C@H](O)CC[C@@H](O)C[C@@H](O)CC(=O)O[C@H]1C)C[C@H](O)[C@H]2C(=O)O` [AMPHOTERICIN B], the Activity in data set [1] is 16.7%; in data set [2] it was “Non-Toxic”. Also, the values for the IC50 in [9], in data set [3] and in data set [10] were 31 nM, 23 nM and 108 nM, respectively. Besides, the inhibition at 0.25 µM amounted to 96.7% in data set [4], 91.1% in data set [7] and 97.5% in [8]. Also, the inhibition at 0.1 µM in [5] came out at 96.2%; in data set [6] it was 94.2%.
In the case of `CCn1c(=O)/c(=C/C=C2\Sc3ccccc3N2C)s/c1=C\c1sc2ccc(F)cc2[n+]1C.Cc1ccc(S(=O)(=O)[O-])cc1`, the values for the Activity in data set [1] and in [2] were 31.1% and “Non-Toxic”, respectively. Further, the values for the half-maximal inhibitory concentration (IC50) in [9], in [3] and in data set [10] were 76 nM, 98 nM and 110 nM, respectively. The inhibition at 0.25 µM in data set [4] was found to be 91.7%; in data set [7], 91%; in [8] it was 89.5%. The inhibition at 0.1 µM is 78.8% in data set [5] and 85.4% in data set [6].
Regarding `CCn1c(=O)/c(=C/C=C2\Sc3ccc(F)cc3N2C)s/c1=C\c1sc2ccc(F)cc2[n+]1C.[Cl-]`, the Activity was 13.8% in data set [1] and “Non-Toxic” in data set [2]. In addition, the IC50 (as a rule, the concentration needed to halve the response being measured) worked out at 161 nM in [3] and 80 nM in data set [10]. The inhibition at 0.25 µM in data set [4] is 81.5%; in data set [7], 87.9%; in [8] it was 79.8%. Also, the values for the inhibition at 0.1 µM in [5] and in data set [6] were 57.5% and 56.4%, respectively.
For `CCn1c(=O)/c(=C/C=C2\Sc3ccc(F)cc3N2C)s/c1=C\c1sc2ccccc2[n+]1C.[Cl-]`, the Activity in [1] is on record as 37%; in data set [2], “Non-Toxic”. Besides, the IC50 in data set [9] came to 139 nM; in data set [3], 133 nM; in data set [10], 134 nM. Further, the inhibition at 0.25 µM in data set [4] amounted to 90.4%; in data set [7] it was 92.2%; in data set [8], 89.2%. For the same molecule, the inhibition at 0.1 µM worked out at 50.1% in [5] and 76.9% in [6].
On to `CCn1c(=O)/c(=C/C=C2\Sc3cc(F)ccc3N2C)s/c1=C\c1sc2ccc(F)cc2[n+]1C.[Cl-]`, for which the Activity was 20.7% in [1] and “Non-Toxic” in [2]. For the same molecule, the concentration for half-maximal inhibition (IC50) stood at 142 nM in data set [9] and 85 nM in [10]. The values for the inhibition at 0.25 µM in [4], in data set [7] and in [8] were 93%, 93% and 93.4%, respectively. The inhibition at 0.1 µM in data set [5] worked out at 32.3%; in data set [6], 54.3%.
Consider `CCn1c(=O)/c(=C/C=C2\Sc3cc(F)ccc3N2C)s/c1=C\c1sc2cc(F)ccc2[n+]1C.[Cl-]`, for which the Activity in [1] is given as 46%; in data set [2], “Non-Toxic”. Moreover, the inhibition at 0.25 µM came out at 76% in [4], 62.1% in [7] and 62.9% in data set [8]. The inhibition at 0.1 µM in data set [5] worked out at 1.9%; in data set [6] it was 17.6%.
With `CCn1c(=O)/c(=C/C=C2\Sc3cc(C(F)(F)F)ccc3N2C)s/c1=C\c1sc2ccc(F)cc2[n+]1C.[Cl-]`, the results for the Activity in data set [1] and in data set [2] were 52.2% and 13.3%, respectively. For the same molecule, the inhibition at 0.25 µM was determined as 33.3% in data set [4], 68.4% in [7] and 39.2% in [8]. The inhibition entry in [5] was “inactive”. In [6], testing at 0.1 µM gave an inhibition of 5.9%.
For the molecule `CCn1c(=O)/c(=C/C=C2\Sc3ccccc3N2C)s/c1=C\c1sc2ccccc2[n+]1C.[Cl-]`, the Activity in data set [1] is 19.2%; in data set [2] it was “Non-Toxic”. Besides, the IC50 stood at 658 nM in data set [9], 302 nM in [3] and 909 nM in data set [10]. Moreover, the inhibition at 0.25 µM in data set [4] amounted to 81.5%; in data set [7], 36.8%; in [8], 70.8%. In addition, the inhibition at 0.1 µM in [5] was determined as 11.5%; in [6], 21%.
As to `CCn1c(=O)/c(=C/C=C2\Sc3ccccc3N2C)s/c1=C\c1sc2cc(F)c(F)cc2[n+]1C.[Cl-]`, the Activity in data set [1] is reported as 18.6%; in data set [2] it was “Non-Toxic”. Further, the half-maximal inhibitory concentration (IC50) in data set [9] worked out at 106 nM; in data set [3] it was 114 nM; in data set [10], 77 nM. Also, the inhibition at 0.25 µM in [4] came to 89.5%; in [7], 92.8%; in data set [8], 91.2%. Moreover, the inhibition at 0.1 µM in [5] was found to be 61.6%; in data set [6], 80.6%.
For the molecule `CCn1c(=O)/c(=C/C=C2\Sc3ccccc3N2C)s/c1=C\c1sc2cc(OC(F)(F)F)ccc2[n+]1C.[Cl-]`, the values for the Activity in [1] and in data set [2] were 48.6% and “Non-Toxic”, respectively. Moreover, the figures for the inhibition at 0.25 µM in data set [4], in data set [7] and in data set [8] were 60.9%, 59.2% and 27.1%, respectively. The inhibition at 0.1 µM was found to be 12.5% in [5] and 8.7% in [6].
As to `CCn1c(=O)/c(=C/C=C2\Sc3ccc(F)cc3N2C)s/c1=C\c1sc2cc(F)ccc2[n+]1C.[Cl-]`, the Activity in [1] is reported as 21%; in data set [2], “Non-Toxic”. Also, the inhibition at 0.25 µM in data set [4] was 79.3%; in data set [7], 88.9%; in data set [8], 75.9%. The IC50 in [10] is 81 nM. Besides, the inhibition at 0.1 µM in [5] came to 20.4%; in data set [6], 43.9%.
On to `CCn1c(=O)/c(=C/C=C2\Sc3ccccc3N2C)s/c1=C\c1sc2cc(C(F)(F)F)ccc2[n+]1C.[Cl-]`, for which the Activity in data set [1] amounted to 33.3%; in data set [2], 0.5%. Besides, the inhibition at 0.25 µM came to 87.6% in data set [4], 71.1% in [7] and 24.9% in data set [8]. Besides, the inhibition at 0.1 µM in data set [5] came to 39%; in data set [6] it was 10.5%.
Regarding `CCn1c(=O)/c(=C/C=C2\Sc3ccccc3N2C)s/c1=C\c1sc2c(F)cccc2[n+]1C.[Cl-]`, the Activity is given as 88.5% in data set [1] and “Non-Toxic” in [2]. The inhibition at 0.25 µM in data set [4] was found to be 88.9%; in [7], 42.9%; in [8], 85.2%. Also, the inhibition at 0.1 µM in data set [5] was found to be 13.9%; in data set [6] it was 41.1%.
For the molecule `CCn1c(=O)/c(=C/C=C2\Sc3cccc(F)c3N2C)s/c1=C\c1sc2ccccc2[n+]1C.[Cl-]`, the Activity in data set [1] is listed as 13.4%; in [2], “Non-Toxic”. In addition, the inhibition at 0.25 µM in data set [4] was determined as 84.2%; in [7], 40.2%; in [8], 73%. The inhibition at 0.1 µM in [5] stood at 33%; in data set [6], 30%.
On to `CCn1c(=O)/c(=C/C=C2\Sc3ccccc3N2C)s/c1=C\c1sc2cc(F)ccc2[n+]1C.[Cl-]`, for which the Activity in [1] is listed as 41.3%; in data set [2], “Non-Toxic”. The values for the concentration for half-maximal inhibition (IC50) in data set [3] and in [10] were 40 nM and 200 nM, respectively. The results for the inhibition at 0.25 µM in data set [4], in data set [7] and in data set [8] were 95.4%, 78.5% and 71.1%, respectively. Also, the inhibition at 0.1 µM in data set [5] was 85.7%; in data set [6], 57.1%.
On to `CCCCCCCCCCCCCCCCOP(=O)([O-])OCC[N+](C)(C)C` [MILTEFOSINE], for which the Activity in data set [1] is given as 12.4%; in data set [2] it was 7.3%. Further, the midpoint of inhibition in data set [9], the IC50, lay at 15800 nM. For the same molecule, the inhibition at 0.25 µM in data set [4] was 4%; in [7], 24.9%. Also, the inhibition result in [5], in [6] and in data set [8] was “inactive” each time.
For `CCn1c(=O)/c(=C/C=C2\Sc3cc(F)ccc3N2C)s/c1=C\c1sc2ccccc2[n+]1C.[Cl-]`, the results for the Activity in data set [1] and in [2] were 61.8% and “Non-Toxic”, respectively. The values for the IC50 in [3] and in [10] were 88 nM and 223 nM, respectively. The inhibition at 0.25 µM in [4] was 96%; in data set [7], 91.2%; in data set [8], 87.8%. The figures for the inhibition at 0.1 µM in data set [5] and in data set [6] were 60% and 40.3%, respectively.
Take `CCn1c(=O)/c(=C/C=C2\Sc3c(F)cccc3N2C)s/c1=C\c1sc2ccccc2[n+]1C.[Cl-]`: the Activity is 72.8% in data set [1] and “Non-Toxic” in [2]. The IC50 in [9] amounted to 272 nM. Further, the inhibition at 0.25 µM in data set [4] was 75.4%; in data set [7] it was 47.9%; in data set [8], 92.7%. The inhibition result in data set [5] was “inactive”. The molecule also came in with an inhibition at 0.1 µM in data set [6] of 56.1%.
